Measured values published in patent US9927437B2, “Treating neurodegenerative disease” (THE BRIGHAM AND WOMEN'S HOSPITAL, INC., priority 2013, dated 2018).

System: primary astrocytes
Assay: Activation of cultured primary astrocytes, mRNA expression
Format: cell-based, mouse
Conditions: for transcriptional response of astrocytes to LPS/IFNγ: 1 h pre-treatment (PDMP 25 μM; LacCer 10 μM), LPS 100 ng/ml and IFNγ 100 Units/ml, 6 h
Description: FIGS. 3a-m. LacCer produced by B4GALT6 acts in an autocrine manner to boost astrocyte activation. Cultured astrocytes were pre-treated for 1 h with PDMP (25 μM), LacCer (10 μM), both (LacCer+PDMP), or vehicle (vehicle), followed by activation with lipopolysaccharide (100 ng/ml) and Interferon-γ (100 Units/ml) (LPS/IFNγ) or left un-treated (control). (a) Heatmap depicting mRNA expression, as detected by Nanostring nCounter analysis, in astrocytes stimulated with LPS/IFNγ. Representative data of three independent experiments. (b) Histogram presentation of the normalized gene expression presented in (a), statistical analysis by one-way ANOVA followed by Tukey post-hoc analysis. (c-i) The expression of B4galt5 (shB4galt5), B4galt6 (shB4galt6) or non-targeting shRNA (ShControl) in C8-D30 astrocytes was knocked-down using verified shRNA (n≥4). (c) qRT analysis of B4galt5 and B4galt6 mRNA expression. (d-f) astrocytes were activated as in (a) and mRNA expression for (d) H2-Aa, (e) Ccl5 and (f) Cxcl10 was determined; expression is presented relative to house keeping gene (Gapdh) (n≥4). (g) Schematic map of the astrocyte-specific shRNA lentiviral vector. […] NOD mice were injected i.c.v. with 1×10^7 IU of shControl, shB4galt5 or shB4galt6 lentivirus, at day 35 after EAE induction (progressive phase). n=10 mice per group (h, i) 10 days after i.c.v. injection experiment was terminated and (h) b4galt5 and b4galt6 expression levels were determined by qPCR in astrocytes isolated from naïve or EAE NOD mice; expression normalized to gapdh and presented relative to that of cells from naïve mice. Representative data of two independent experiments, Statistical analysis by one-way ANOVA, followed by Tukey post-hoc analysis. (i) LacCer levels were quantified of in the CNS of naïve or EAE NOD mice treated as shown in (j). Statistical analysis by one-way ANOVA, followed by Tukey post-hoc analysis. (j) EAE clinical scores. Representative data of two independent experiments. Statistical analysis as in (FIG. 1a). (k) Cultured primary astrocytes were pre-treated for 1 h with PDMP (25 μM), LacCer (10 μM), both (LacCer+PDMP), or vehicle control (vehicle), followed by activation with LPS/IFNγ for 45 min, or left un-treated (control, Con). IRF-1 and Lamin B expression in the nuclear fraction analyzed by western blot and the degree of IRF-1 translocation to the nucleus was assessed by the ratio between the expression of IRF-1 and Lamin-B in the nuclear fractions following densitometric quantification on four independent experiments (right panel). Statistical analysis by one-way ANOVA, followed by Tukey post-hoc analysis. (l) ChIP analysis of the interaction of NF-κB, and IRF-1 with the) nos2 promoter in primary cultured astrocytes. Experimental design and data analysis as in (FIG. 4c). Data from two independent experiments (m) qPCR analysis of the expression of nos2, csf2, ccl2, ccl5, il6, and tlr2 in astrocyte cultures established from WT or IRF-1 deficient (IRF-1 KO) mice, pre-treated with LacCer or vehicle, and activated with LPS/IFNγ. […]
FIGS. 14a-g. […] (a) Cultured astrocytes were pre-treated for 1 h with PDMP (25 μM), LacCer (10 μM), both (LacCer+PDMP), or vehicle control (vehicle), followed by activation with LPS/IFNγ for 6 h, or left un-treated (control, Con). mRNA expression was analyzed 6 h following activation. qPCR analysis of the expression of cc/5, csf2, nos2, il6, H2-Aa, and tlr2 presented relative to gapdh. […]

Compound	transcriptional response of astrocytes to LPS/IFNγ	h2-Aa, ccl5 and cxcl10 expression in B4GALT6 knocked-down astrocytes (astrocytes with shB4galt6, PDMP pre-treatment, LPS/IFNγ 6 h)	astrocyte activation, LacCer added to PDMP (LacCer 10 μM + PDMP 25 μM, LPS/IFNγ)
CCCCCCCCCC(=O)N[C@H](CN1CCOCC1)[C@H](O)c1ccccc1 [PDMP, D-threo-1-phenyl-2-decanoylamino-3-morpholino-1-propanol]	suppressed the transcriptional response	did not further suppress	–
lactosylceramide [LacCer]	boosted the response	–	overcame the suppressive effects of PDMP
